In publication PMC10415461 (Molecular Diversity, 2022):
In brackets after ≈: the same amount, converted by molar mass. Read-outs that look alike come from different tables or passages of the source.

Legend:
[1] = system: tested bacterial strains (Gram positive or Gram negative: S. aureus, P. aeruginosa, E. coli); experiment: Antibacterial MIC range over the tested bacterial strains; format: cell-based; conditions: range over Gram positive and Gram negative strains
Protocol: (§1) . Standard strains of Staphylococcus aureus (ATCC 6538), Pseudomonas aeruginosa (ATCC 10,145), and Escherichia coli (ATCC 8739) were obtained from microbiological resource center, Faculty of Agriculture, Ain Shams University, Cairo, Egypt. All isolates were maintained at -70 °C in Trypticase Soya Broth (TSB, Becton, and Dickinson) with 10% glycerol. Prior to inoculation, all isolates were subcultured at 37 °C for 24 h on Trypticase Soya Agar (TSA, Becton, and Dickinson) and TSB, respectively.
The plates were rotated slowly to ensure uniform distribution of the microorganisms and then allowed to solidify on a flat surface. After solidification, four equidistant and circular wells of 10 mm diameter were carefully punched using a sterile cork bore. Twofold serial dilutions of the tested compounds using DMSO were performed. An equal volume of 100µL of each dilution was applied separately to each well in three replicates using a micropipette. All plates were incubated at 37 °C for 24 h. The inhibition zones were measured, and their average was calculated. The MIC was calculated by plotting the natural logarithm of the concentration of each dilution of the tested compounds against the square of zones of inhibition, and a regression line was drawn through the points then the antilogarithm of the intercept on the logarithm of concentration axis gave the MIC value.

S. aureus (ATCC 6538) = experiment: Antibacterial MIC, standard agar cup diffusion method; format: cell-based, Staphylococcus aureus; conditions: Staphylococcus aureus, ATCC6538, 37 °C, 24 h, read-out: MIC S. aureus (Gram-positive)
Protocol: as §1, with “The antibacterial and antifungal activities of compounds, ketone 1, 2a-j, and 5a-i were evaluated in vitro against S. aureus (ATCC 6538), P. aeruginosa (ATCC 10,145), E. coli (ATCC 8739), and C. albicans (ATCC 10,231). […] Standard” for “. Standard”
(§2) The plates were rotated slowly to ensure uniform distribution of the microorganisms and then allowed to solidify on a flat surface. After solidification, four equidistant and circular wells of 10 mm diameter were carefully punched using a sterile cork bore. Twofold serial dilutions of the tested compounds using DMSO were performed. An equal volume of 100µL of each dilution was applied separately to each well in three replicates using a micropipette. All plates were incubated at 37 °C for 24 h. The inhibition zones were measured, and their average was calculated.

[2] = system: P. aeruginosa (ATCC 10,145); experiment: as above; format: cell-based; conditions: Pseudomonas aeruginosa, ATCC 10145, 37 °C, 24 h, read-out: MIC P. aeruginosa (Gram-negative)
Protocol: as §1, with “The antibacterial and antifungal activities of compounds, ketone 1, 2a-j, and 5a-i were evaluated in vitro against S. aureus (ATCC 6538), P. aeruginosa (ATCC 10,145), E. coli (ATCC 8739), and C. albicans (ATCC 10,231). […] Standard” for “. Standard”
as §2

E. coli (ATCC 8739) = experiment: as above; format: cell-based; conditions: Escherichia coli, ATCC8739, 37 °C, 24 h, read-out: MIC E. coli (Gram-negative)
Protocol: as §1, with “The antibacterial and antifungal activities of compounds, ketone 1, 2a-j, and 5a-i were evaluated in vitro against S. aureus (ATCC 6538), P. aeruginosa (ATCC 10,145), E. coli (ATCC 8739), and C. albicans (ATCC 10,231). […] Standard” for “. Standard”
as §2

[3] = system: C. albicans (ATCC 10,231); experiment: Antifungal MIC, agar cup diffusion method; format: cell-based, Candida albicans; conditions: Sabouraud agar, 37 °C; for MIC: Candida albicans, ATCC 10,231, 24 h, read-out: MIC C. albicans (Fungi)
Protocol: The antibacterial and antifungal activities of compounds, ketone 1, 2a-j, and 5a-i were evaluated in vitro against S. aureus (ATCC 6538), P. aeruginosa (ATCC 10,145), E. coli (ATCC 8739), and C. albicans (ATCC 10,231). […] The antifungal activity of compounds 1, 2a-j, and 5a-i and ketoconazole were determined according to the agar cup diffusion method at Deraya University, Faculty of Pharmacy, Department of Microbiology.
Fungal strains and culture conditions. […] Standard strain of Candida albicans (ATCC 10,231) was obtained from microbiological resource center, Faculty of Agriculture, Ain Shams University, Cairo, Egypt. The isolate was maintained at -70 °C in Trypticase Soya Broth (TSB, Becton, and Dickinson) with 10% glycerol. Prior to inoculation, the isolate was subcultured at 37 °C for 24 h on Trypticase Soya Agar (TSA, Becton, and Dickinson) and TSB, respectively.
as §2

[4] = Solubility determination in phosphate buffer; format: physicochemical; conditions: aqueous buffer, thermodynamic from solid
Protocol: A sample of drug was accurately weighed and dissolved in 100 ml of distilled water to prepare 100 mcg/ml stock solutions. Appropriate dilution of the stock solution with phosphate buffer pH 6.8 and 7.8 was then made to prepare a working solution of 40mcg/ml.
After determination of λ max of drug, a calibration curve was constructed by preparing solutions containing different concentrations of (1–5 mcg/ml) from stock solution after appropriate dilution with phosphate buffer pH 6.8. The UV absorbance of the prepared sample solutions were measured at the predetermined λ max using phosphate buffer pH 6.8 as a blank.
Aqueous solubility of the complexes was measured as a function of pH. An excess of each derivative was placed into suitable stoppered containers. […] The samples were immersed in a water bath thermostatized at 37 ± 1^◦C and 100 rpm and periodically shaken for 48 h. Once the equilibrium was reached, the pH of the supernatant was regarded.

S. aureus DNA gyrase = S. aureus DNA gyrase (Staphylococcus aureus, UniProt P0A0K8+P20831); experiment: Staphylococcus aureus DNA gyrase supercoiling assay; format: biochemical; conditions: supercoiling of relaxed pBR322, 37 °C, 30 min; read-out: S. aureus DNA gyrase IC50 ± SD
Protocol: As antibacterial agents, fluoroquinolones act by targeting and inhibiting DNA gyrase (topo II) which is an essential enzyme involved in the DNA replication process.
Staphylococcus aureus DNA gyrase was incubated at 37 °C for 30 min in a total reaction volume of 30 μl containing 40 mM HEPES. KOH (pH 7.6), 10 mM magnesium acetate, 10 mM DTT, 2 mM ATP, 500 mM potassium glutamate, 0.05 mg/ml albumin and Relaxed pBR322. DNA gyrase supercoiling reactions catalyzed by S. aureus gyrase, Stop reaction by adding 30 μL of STEB and 30 μL of chloroform/isoamyl alcohol (v:v, 24:1),and then Vortex briefly ~ 5 secs and centrifuge for 1 min. after which 20 µL of this was loaded on a 1% agarose gel that was then run at ~ 75 V for approximately 2 h. The gel was stained by (0.5 mg/L) ethidium bromide in water. Fluorescent images were taken at a wavelength of 300 nm on a UV transilluminator imaging system. The fluorescence intensity of the supercoiled plasmid reaction product was quantitated using ImagQuant software (Molecular Dynamics).

physchem = conditions: pH 7.8
Protocol: The n-octanol/water apparent partition coefficient at the isoelectric point (or distribution constant) was measured by using the traditional shake-flask technique. The pH of the aqueous buffer was first adjusted to isoelectric point of the compound. The n-octanol and aqueous phases were then mutually saturated before the measurement. […] The samples were agitated for 5h at water bath shaker thermostatized at 25 ± 1^◦C and 100 rpm. The concentration of the solute was determined in the aqueous and organic phases at the isoelectric point by UV spectroscopy the log p value was calculated as follows: […].

[5] = system: all tested strains, either Gram-positive or Gram-negative pathogens; set-up: method as in doi:10.1016/j.cclet.2016.12.012, doi:10.1515/hc-2016-0125; conditions: reference drug; cited from earlier work
[6] = system: fluoroquinolones, vancomycin, and/or linezolid-resistant strains; conditions: cited from earlier work
[7] = system: Gram negative and Gram positive; set-up: method as in PMID 14623004; conditions: cited from earlier work
Gram-negative pathogens = system: Gram-negative pathogens; set-up: method as in doi:10.1016/j.cclet.2016.12.012, doi:10.1515/hc-2016-0125; conditions: cited from earlier work
Gram-positive pathogens = system: Gram-positive pathogens; set-up: method as in doi:10.1016/j.cclet.2016.12.012, doi:10.1515/hc-2016-0125; conditions: cited from earlier work
[8] = phosphate buffer pH 6.8, 37 °C, read-out: Solubility pH 6.8
[9] = phosphate buffer pH 7.8, 37 °C, read-out: Solubility pH 7.8

S. aureus DNA gyrase, sequence (P20831 whole entry): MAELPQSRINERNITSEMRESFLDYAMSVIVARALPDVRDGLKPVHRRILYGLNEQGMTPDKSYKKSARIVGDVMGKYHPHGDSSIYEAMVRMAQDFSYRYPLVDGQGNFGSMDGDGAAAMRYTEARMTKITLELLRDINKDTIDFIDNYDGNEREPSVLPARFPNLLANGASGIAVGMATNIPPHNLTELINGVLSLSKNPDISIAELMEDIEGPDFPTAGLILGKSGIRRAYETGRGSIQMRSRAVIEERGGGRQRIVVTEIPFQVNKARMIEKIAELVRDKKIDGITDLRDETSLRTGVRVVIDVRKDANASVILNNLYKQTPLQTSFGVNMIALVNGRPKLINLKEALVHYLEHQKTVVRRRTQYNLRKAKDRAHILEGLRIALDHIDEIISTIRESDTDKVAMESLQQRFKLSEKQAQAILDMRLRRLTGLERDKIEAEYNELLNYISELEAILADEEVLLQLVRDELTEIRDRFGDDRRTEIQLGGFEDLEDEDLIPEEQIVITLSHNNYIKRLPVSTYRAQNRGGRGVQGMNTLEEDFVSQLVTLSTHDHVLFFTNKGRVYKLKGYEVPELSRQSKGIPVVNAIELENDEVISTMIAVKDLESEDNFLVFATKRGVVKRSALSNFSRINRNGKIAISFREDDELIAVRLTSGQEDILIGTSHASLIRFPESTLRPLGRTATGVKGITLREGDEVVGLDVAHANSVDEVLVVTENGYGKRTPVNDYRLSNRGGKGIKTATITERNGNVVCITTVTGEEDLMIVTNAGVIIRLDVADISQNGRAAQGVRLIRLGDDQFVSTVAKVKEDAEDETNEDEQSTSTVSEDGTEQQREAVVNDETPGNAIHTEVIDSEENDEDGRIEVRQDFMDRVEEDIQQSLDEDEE
S. aureus DNA gyrase, sequence (P0A0K8 whole entry): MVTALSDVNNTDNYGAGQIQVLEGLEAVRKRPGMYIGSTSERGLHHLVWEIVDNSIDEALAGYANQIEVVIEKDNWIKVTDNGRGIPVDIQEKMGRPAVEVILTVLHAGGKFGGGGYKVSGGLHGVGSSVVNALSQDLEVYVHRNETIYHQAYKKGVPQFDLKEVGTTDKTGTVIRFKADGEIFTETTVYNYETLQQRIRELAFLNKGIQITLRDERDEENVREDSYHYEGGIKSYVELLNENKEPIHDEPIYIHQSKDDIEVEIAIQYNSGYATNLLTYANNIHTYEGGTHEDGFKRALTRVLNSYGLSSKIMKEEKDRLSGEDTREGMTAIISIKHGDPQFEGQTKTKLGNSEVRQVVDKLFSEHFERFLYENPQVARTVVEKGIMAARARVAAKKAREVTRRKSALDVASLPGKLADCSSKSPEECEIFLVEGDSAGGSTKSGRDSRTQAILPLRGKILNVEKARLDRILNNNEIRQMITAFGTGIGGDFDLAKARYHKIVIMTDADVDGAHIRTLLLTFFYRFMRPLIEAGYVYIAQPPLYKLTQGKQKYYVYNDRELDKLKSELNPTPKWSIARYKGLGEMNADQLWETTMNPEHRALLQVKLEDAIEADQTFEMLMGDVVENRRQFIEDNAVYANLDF

Row | SMILES | MIC range against the tested bacterial strains [1] | MIC (S. aureus (ATCC 6538)) | MIC [2] | MIC (E. coli (ATCC 8739)) | MIC [3] | solubility at 48 h [4, 8] | solubility at 48 h [4, 9] | IC50 (S. aureus DNA gyrase) | logD (physchem) | MIC C. albicans (Fungi) ([3]; 24 h) | melting point | MIC [5] | MIC range [6] | MIC range [7] | MIC (Gram-negative pathogens) | MIC (Gram-positive pathogens)
1 | O=C(O)c1cn(C2CC2)c2cc(N3CCNCC3)c(F)cc2c1=O [Ciprofloxacin, reference compound] | 0.15 to 3.25 µg/mL | 3.25 µg/mL (≈ 9.81 µM) | 0.22 µg/mL (≈ 0.664 µM) | 0.15 µg/mL (≈ 0.453 µM) |  |  |  |  |  |  |  |  |  |  |  | 
2 | O=C(/C=C/c1cccc(Cl)c1)c1ccc(NC(=O)N2CCN(c3cc4c(cc3F)c(=O)c(C(=O)O)cn4C3CC3)CC2)cc1 [Compound 2b] | 0.06 to 1.53 µg/mL | 0.06 µg/mL (≈ 0.0976 µM) | 0.64 µg/mL (≈ 1.04 µM) | 0.18 µg/mL (≈ 0.293 µM) | 15.2 µg/mL (≈ 24.8 µM) | 160 µg/mL (≈ 260 µM) | 180 µg/mL (≈ 293 µM) | 231 ± 10 nM | 0.31 |  |  |  |  |  |  | 
3 | O=C(/C=C/c1ccc(Cl)cc1)c1ccc(NC(=O)N2CCN(c3cc4c(cc3F)c(=O)c(C(=O)O)cn4C3CC3)CC2)cc1 [Compound 2c] | 0.06 to 1.53 µg/mL | 0.67 µg/mL (≈ 1.09 µM) | 1.03 µg/mL (≈ 1.67 µM) | 0.34 µg/mL (≈ 0.553 µM) | 2.03 to 3.89 µg/mL (≈ 3.3 to 6.32 µM) | 130 µg/mL (≈ 211 µM) | 150 µg/mL (≈ 244 µM) | 3000 ± 160 nM | 0.07 | 3.89 µg/mL (≈ 6.32 µM) |  |  |  |  |  | 
4 | N#Cc1c(-c2ccccc2)nc(SCC(=O)N2CCN(c3cc4c(cc3F)c(=O)c(C(=O)O)cn4C3CC3)CC2)[nH]c1=O [Compound 5a, 7-(4-(2-((5-Cyano-6-oxo-4-phenyl-1,6-dihydropyrimidin-2-yl)thio)acetyl)piperazin-1-yl)-1-cyclopropyl-6-fluoro-4-oxo-1,4-dihydroquinoline-3-carboxylic acid] | 0.06 to 1.53 µg/mL | 0.36 µg/mL (≈ 0.599 µM) | 1.53 µg/mL (≈ 2.55 µM) | 0.91 µg/mL (≈ 1.52 µM) | 6.23 µg/mL (≈ 10.4 µM) |  |  | 4550 ± 240 nM |  |  | 237 to 240 °C |  |  |  |  | 
5 | N#Cc1c(-c2cccc(Cl)c2)nc(SCC(=O)N2CCN(c3cc4c(cc3F)c(=O)c(C(=O)O)cn4C3CC3)CC2)[nH]c1=O [Compound 5b, 7-(4-(2-((4-(3-Chlorophenyl)-5-cyano-6-oxo-1,6-dihydropyrimidin-2-yl)thio)acetyl)piperazin-1-yl)-1-cyclopropyl-6-fluoro-4-oxo-1,4-dihydroquinoline-3-carboxylic acid] | 0.06 to 1.53 µg/mL | 0.7 µg/mL (≈ 1.1 µM) | 0.19 µg/mL (≈ 0.299 µM) | 0.12 µg/mL (≈ 0.189 µM) | > 100 µg/mL |  |  | 1270 ± 70 nM |  |  | 248 to 251 °C |  |  |  |  | 
6 | COc1ccc(-c2nc(SCC(=O)N3CCN(c4cc5c(cc4F)c(=O)c(C(=O)O)cn5C4CC4)CC3)[nH]c(=O)c2C#N)cc1OC [Compound 5h, 7-(4-(2-((5-Cyano-4-(3,4-dimethoxyphenyl)-6-oxo-1,6-dihydropyrimidin-2-yl)thio)acetyl)piperazin-1-yl)-1-cyclopropyl-6-fluoro-4-oxo-1,4-dihydroquinoline-3-carboxylic acid] | 0.06 to 1.53 µg/mL | 0.34 µg/mL (≈ 0.515 µM) | 0.49 µg/mL (≈ 0.742 µM) | 0.21 µg/mL (≈ 0.318 µM) | 28.7 µg/mL (≈ 43.5 µM) |  |  | 1460 ± 80 nM |  |  | 266 to 269 °C |  |  |  |  | 
7 | COc1cc(-c2nc(SCC(=O)N3CCN(c4cc5c(cc4F)c(=O)c(C(=O)O)cn5C4CC4)CC3)[nH]c(=O)c2C#N)cc(OC)c1OC [Compound 5i, 7-(4-(2-((5-Cyano-6-oxo-4-(3,4,5-trimethoxyphenyl)-1,6-dihydropyrimidin-2-yl)thio)acetyl)piperazin-1-yl)-1-cyclopropyl-6-fluoro-4-oxo-1,4-dihydroquinoline-3-carboxylic acid] | 0.06 to 1.53 µg/mL | 0.74 µg/mL (≈ 1.07 µM) | 0.13 µg/mL (≈ 0.188 µM) | 0.63 µg/mL (≈ 0.912 µM) | > 100 µg/mL |  |  | 1410 ± 70 nM |  |  | 284 to 285 °C |  |  |  |  | 
8 | CC1(C)S[C@@H]2[C@H](NC(=O)[C@H](N)c3ccccc3)C(=O)N2[C@H]1C(=O)O [ampicillin] |  |  |  |  |  |  |  |  |  |  |  | 3.9 to 250 µg/mL |  |  |  | 
9 | CC(=O)NC[C@H]1CN(c2ccc(N3CCN(c4cc5c(cc4F)c(=O)c(C(=O)O)cn5C4CC4)CC3)c(F)c2)C(=O)O1 [hybrid II] |  |  |  |  |  |  |  |  |  |  |  |  | 0.25 to 0.5 µg/mL | 0.125 to 4 µg/mL |  | 
10 | COc1cccc(-c2nn(CN3CCN(c4cc5c(cc4F)c(=O)c(C(=O)O)cn5C4CC4)CC3)c(=S)n2Cc2ccc(Br)cc2Cl)c1 [hybrid I] |  |  |  |  |  |  |  |  |  |  |  |  |  |  | 0.01 to 1.32 µg/mL | < 0.24 µg/mL
